Results from patent US20230159511A1, “TETRAHYDROISOQUINOLINE COMPOUNDS AS NRF2 ACTIVATORS” (C4X Discovery Limited, priority 2020, published 2023).

Legend:
[1] = biological target: T1, human KEAP1 (N-term, residues 321-609) (Homo sapiens, UniProt Q14145); assay: KEAP1 Kelch Fluorescence Polarization (FP) Assay; format: binding; conditions: inhibition of Kelch domain-NRF2 interaction; 2 nM FITC-labelled NRF2 peptide, 25 nM KEAP1, 1 h room temperature; compounds below 10 nM cannot be differentiated
T1 construct: human KEAP1 (N-term, residues 321-609)
Method in brief: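 FP competition: 2 nM FITC-NRF2 peptide (LDEETGEFL) with 25 nM KEAP1 Kelch domain, pH 8.0 Tris buffer, 0.5% DMSO, 1 h at room temperature; 12-point 1:3 dilutions from 10 μM.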

[2] = test system: NRF2 mediated gene NAD(P)H:quinone acceptor oxidoreductase 1 (NQO1) in BEAS-2B cells; assay: Beas2B NQO1 mRNA Cell Based Assay; set-up: species or system human; conditions: Homo sapiens; BEAS-2B cells, compound for 24 h; increase in NQO1 mRNA compared to vehicle (0.1% DMSO) control; read-out: EC50
Method: Beas2B NQO1 mRNA Cell Based Assay
The up regulation of the NRF2 mediated gene NAD(P)H:quinone acceptor oxidoreductase 1 (NQO1) was measured using the following assay method: BEAS-2B cells (ATCC CRL-9609) were plated in 96-well clear plates at 20,000 cells/well in 75 μL of cell culture media and incubated overnight (37° C., 5% CO2). On day 2, 25 μL of compound or controls were added to the cells for 24 h. On day 3, the medium was aspirated from the plate and the Cells-to-CT™ 1-Step TaqMan® Kit (Ambion A25603) was used to perform expression analysis directly from cultured cells without RNA purification according to the manufacturer's instructions.
Briefly, cells were washed with ice cold PBS and 22.5 μL of room-temperature DNase/Lysis solution was added to the cells and incubated at room temperature for 5 minutes. To stop the reaction, 2.25 μL of stop solution was added to the cell lysate. The samples were diluted 1:5 using nuclease free water and 2.5 μL transferred into the PCR plate. Real-time PCR was performed using the C-1000 Thermal Cycler (Bio-Rad) using human beta actin as the internal control. The cDNA was amplified with a specific primer for NQO1 using the 1-step RT-PCR master mix (Ambion Cells-to-CTTM 1-Step TaqMan® Kit A25603). The primers/probes sets that were used for amplification of cDNA were obtained from TaqMan Gene Expression Assays (Applied Biosystems). The comparative CT (ΔΔCT) relative quantification method was used to calculate the relative mRNA level of the target gene NQO1 as described in the Applied Biosystems Chemistry Guide. The data are expressed as an increase in target gene mRNA compared to vehicle (0.1% DMSO) control and the EC50 values were determined by fitting the data to a four parameter logistic fit using XLfit or XE Runner within ActivityBase.

T1 sequence (Q14145 321-609): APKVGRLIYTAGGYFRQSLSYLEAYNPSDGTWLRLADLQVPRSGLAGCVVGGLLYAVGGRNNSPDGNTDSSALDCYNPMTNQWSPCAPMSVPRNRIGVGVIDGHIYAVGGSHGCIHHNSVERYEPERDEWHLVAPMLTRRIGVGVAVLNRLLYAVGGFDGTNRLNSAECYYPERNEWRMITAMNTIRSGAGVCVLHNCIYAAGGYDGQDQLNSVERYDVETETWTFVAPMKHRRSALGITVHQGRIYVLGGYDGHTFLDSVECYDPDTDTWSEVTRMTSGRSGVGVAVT

SMILES	IC50 [1]	EC50 [2]
CNC(=O)N1CCCC[C@H]1C(=O)N1CCc2c(Cl)ccc(OCc3nnn(C)c3C(F)F)c2[C@H]1CN1CCCC1=O [Example 79, (S)-2-((S)-5-chloro-8-((5-(difluoromethyl)-1-methyl-1H-1,2,3-triazol-4-yl)methoxy)-1-((2-oxopyrrolidin-1-yl)methyl)-1,2,3,4-tetrahydroisoquinoline-2-carbonyl)-N-methylpiperidine-1-carboxamide]	14 nM	336 nM
CNC(=O)[C@H]1CCCC[C@H]1C(=O)N1CCc2cccc(O[C@H]3CCN(C(=O)c4cncs4)C3)c2[C@H]1CN1C(=O)c2ccccc2C1=O [Example 17, (1S,2R)-2-((S)-1-((1,3-dioxoisoindolin-2-yl)methyl)-8-(((S)-1-(thiazole-5-carbonyl)pyrrolidin-3-yl)oxy)-1,2,3,4-tetrahydroisoquinoline-2-carbonyl)-N-methylcyclohexane-1-carboxamide]	28 nM	3070 nM
C[C@]1(C(N)=O)CCCC[C@H]1C(=O)N1CCc2c(Cl)cc(F)c(OCc3nnn4c3CCCC4)c2[C@H]1CN1CC2(CC2)CC1=O [Example 111, (1S,2R)-2-((S)-5-chloro-7-fluoro-1-((6-oxo-5-azaspiro[2.4]heptan-5-yl)methyl)-8-((4,5,6,7-tetrahydro-[1,2,3]triazolo[1,5-a]pyridin-3-yl)methoxy)-1,2,3,4-tetrahydroisoquinoline-2-carbonyl)-1-methylcyclohexane-1-carboxamide]	7.2 nM	30 nM
CNC(=O)[C@H]1CCCC[C@H]1C(=O)N1CCc2c(Cl)ccc(OCc3ccc4c(c3)nnn4C)c2[C@H]1CN1CCCC1=O [Example 72, (1S,2R)-2-((S)-5-chloro-8-((1-methyl-1H-benzo[d][1,2,3]triazol-5-yl)methoxy)-1-((2-oxopyrrolidin-1-yl)methyl)-1,2,3,4-tetrahydroisoquinoline-2-carbonyl)-N-methylcyclohexane-1-carboxamide]	27 nM	605 nM
O=C(NCC(F)(F)CO)[C@H]1CCCC[C@H]1C(=O)N1CCc2cccc(O[C@H]3CCN(C(=O)c4cncs4)C3)c2[C@H]1CN1C(=O)c2ccccc2C1=O [Example 34, (1S,2R)-N-(2,2-difluoro-3-hydroxypropyl)-2-((S)-1-((1,3-dioxoisoindolin-2-yl)methyl)-8-(((S)-1-(thiazole-5-carbonyl)pyrrolidin-3-yl)oxy)-1,2,3,4-tetrahydroisoquinoline-2-carbonyl)cyclohexane-1-carboxamide]	36 nM	193 nM
CNC(=O)[C@H]1CCCC[C@H]1C(=O)N1CCc2c(Cl)ccc(OCc3nnc(C)n3C)c2[C@H]1CN1CCCC1=O [Example 86, (1S,2R)-2-((S)-5-chloro-8-((4,5-dimethyl-4H-1,2,4-triazol-3-yl)methoxy)-1-((2-oxopyrrolidin-1-yl)methyl)-1,2,3,4-tetrahydroisoquinoline-2-carbonyl)-N-methylcyclohexane-1-carboxamide]	14 nM	2420 nM
CNC(=O)[C@@]1(C)CCCC[C@H]1C(=O)N1CCc2c(Cl)cc(F)c(OCc3nnn(C)c3C(F)F)c2[C@H]1CN1CCOCC1=O [Example 108, (1S,2R)-2-((S)-5-chloro-8-((5-(difluoromethyl)-1-methyl-1H-1,2,3-triazol-4-yl)methoxy)-7-fluoro-1-((3-oxomorpholino)methyl)-1,2,3,4-tetrahydroisoquinoline-2-carbonyl)-N,1-dimethylcyclohexane-1-carboxamide]	7.3 nM	654 nM
CNC(=O)[C@H]1CCCC[C@H]1C(=O)N1CCc2c(Cl)ccc(OCc3ccc4c(C)noc4n3)c2[C@H]1CN1CCCC1=O [Example 71, (1S,2R)-2-((S)-5-chloro-8-((3-methylisoxazolo[5,4-b]pyridin-6-yl)methoxy)-1-((2-oxopyrrolidin-1-yl)methyl)-1,2,3,4-tetrahydroisoquinoline-2-carbonyl)-N-methylcyclohexane-1-carboxamide]	17 nM	116 nM
